Earlier results, collected in article PMC11949389 (Polish Journal of Microbiology, 2025).
pEC50: −log10 of the molar value. Values after ≈ are worked out from the molar mass of the structure shown.

How the values were obtained:
[1] = system: Enterobacter aerogenes; conditions: ref Sayout et al. 2020
[2] = system: Acinetobacter baumannii; conditions: ref Sayout et al. 2020
[3] = system: Staphylococcus aureus; conditions: Staphylococcus aureus; ref Kwiatkowski et al. 2020; Sayout et al. 2020; Sousa Silveira et al. 2020; Macêdo et al. 2022; Noumi et al. 2023; Sharma et al. 2023
[4] = system: Salmonella spp.; conditions: ref Sayout et al. 2020
[5] = system: Klebsiella oxytoca; conditions: ref Sayout et al. 2020
[6] = system: Mupirocin-susceptible Staphylococcus aureus; conditions: ref Kwiatkowski et al. 2019
[7] = system: Vancomycin-sensitive Enterococcus (VSE); conditions: binary combinations with vancomycin, VSE; ref Owen et al. (2020)
[8] = system: Mupirocin-resistant Staphylococcus aureus; conditions: ref Kwiatkowski et al. 2019
[9] = system: Pseudomonas aeruginosa; conditions: antibiotic-sensitive P. aeruginosa; ref Owen et al. (2019)
[10] = system: Vibrio anguillarum, and Vibrio harveyi; conditions: ref Rossi et al. (2021)
[11] = system: Klebsiella pneumoniae; conditions: ref Sayout et al. 2020, de Souza et al. 2021, Kwiatkowski et al. 2022
[12] = system: Ciprofloxacin-resistant Pseudomonas aeruginosa; conditions: resistant P. aeruginosa strains; ref Owen et al. (2019)
[13] = system: Enterobacter cloacae; conditions: ref Sayout et al. 2020
[14] = system: Campylobacter jejuni
[15] = system: Chikungunya virus (CHIKV); conditions: ref Kumar et al. (2021)

C=CC(C)(O)CCC=C(C)C (centres unmarked) [Linalool]
MIC/Sensitivity [1]: 1.44 µg/mL (≈ 9.34 µM) | MIC/Sensitivity [2]: 1.44 µg/mL (≈ 9.34 µM) | MIC/Sensitivity [3]: 2.88 to 6800 µg/mL | MIC/Sensitivity [4]: 2.88 µg/mL (≈ 18.7 µM) | MIC/Sensitivity [5]: 1.44 µg/mL (≈ 9.34 µM) | MIC/Sensitivity [6]: 6800 µg/mL (≈ 44100 µM) | reduction in vancomycin’s MIC [7]: four to eight-fold reduction | MIC/Sensitivity [8]: 2830 µg/mL (≈ 18300 µM) | MIC [9]: 228.20 mM (≈ 35.2 mg/mL) | activity at the tested concentrations [10]: no activity | MIC/Sensitivity [11]: 3.83 µg/mL (≈ 24.8 µM) | MIC [12]: 912.90 mM (≈ 141 mg/mL) | MIC/Sensitivity [13]: 1.92 µg/mL (≈ 12.4 µM)

CC1=CC(=O)C(C(C)C)=CC1=O [Thymoquinone]
MIC/Sensitivity ([14]; Campylobacter jejuni, ref Šimunović et al. 2020): 31.25 µg/mL (≈ 190 µM) | MIC ([14]; ref Šimunović et al. (2020)): 31.25 µg/mL (≈ 190 µM) | pEC50 ([15]; CHIKV replication): 5.35 | reduction of CHIKV titer ([15]; plaque reduction assay, 20 μM): over 90%
